# Assay results from patent US7910751B2, “Heterocyclidene acetamide derivative” (Mochida Pharmaceutical Co., Ltd., priority 2005, dated 2011).
# Target: T1, human TRPV1 (Homo sapiens, UniProt Q8NER1)
# T1 construct: expressed in transfected cells; host or cells: CHO-K1
# Test: Measurement of capsaicin-induced Ca influx in human TRPV1 transformed CHO cell line using FDSS-6000
# Type: cell-based
# Conditions: concentration at which the capsaicin concentration-reaction curve is shifted two times to the right, human TRPV1 transformed CHO cells
# Description: [Measurement of Capsaicin-Induced Ca Influx in Human TRPV1 Transformed CHO Cell Line]
# (1) Establishment of Human TRPV1 Transformed CHO Cell Line
# Human vanilloid receptor 1 (hTRPV1) cDNA was cloned from a human brain. The cloned hTRPV1 cDNA was incorporated in a pCAGGS vector. The gene of the vector was introduced to a CHO-K1 cell line, thus performing transformation. Clones obtained by limiting dilution were stimulated with capsaicin. Clones with a high responsiveness were selected using an increase in the Ca concentration as an indicator. The selected clones were used for the following experiment.
# (2) Measurement of Ca Influx Using FDSS-6000
# The human TRPV1 transformed CHO cells were seeded in a 96-well plate (with black walls and transparent bottoms, manufactured by Greiner) at a density of 40,000 cells per well. The cells were cultured at 37° C. in 5% CO2 for one night. A loading solution of FLIPR Calcium 3 assay kit (manufactured by Molecular Devices Corporation) containing 2.5 mmol/L of probenecid was then added to each of the wells in the same amount as the culture medium, and the cells were cultured at 37° C. for 60 minutes. After the cells were stimulated with capsaicin (1 nmol/L to 1 μmol/L), the change in the Ca concentration in the cells was measured using FDSS-6000 (λex: 480 nm, λem: 540 nm, manufactured by Hamamatsu Photonics K.K.) for three minutes. The integrated values of the increase rate of the Ca concentration in the cells were calculated for a group treated with the compounds of the present invention and a group treated with a medium, thus allowing capsaicin concentration-reaction curves to be obtained. A concentration (A2 value) of each of the compounds of the present invention, at which the capsaicin concentration-reaction curve obtained when the cells were treated with the medium was shifted two times to the right side, was calculated. The inhibiting effects of the test compounds were compared using this value as an indicator.
# In the case where a compound of the present invention is an agonist, when the cells are treated with the compound of the present invention prior to the capsaicin stimulation, the Ca influx is observed. In Table 1, compounds of the present invention having an A2 value of less than 100 nM are represented by A, and compounds having an A2 value of 100 nM or more are represented by B. When the A2 values of the compounds of the present invention were measured by the above-described method, the compounds have an intensity of 1 μM or less.
# T1 sequence (Q8NER1 whole entry): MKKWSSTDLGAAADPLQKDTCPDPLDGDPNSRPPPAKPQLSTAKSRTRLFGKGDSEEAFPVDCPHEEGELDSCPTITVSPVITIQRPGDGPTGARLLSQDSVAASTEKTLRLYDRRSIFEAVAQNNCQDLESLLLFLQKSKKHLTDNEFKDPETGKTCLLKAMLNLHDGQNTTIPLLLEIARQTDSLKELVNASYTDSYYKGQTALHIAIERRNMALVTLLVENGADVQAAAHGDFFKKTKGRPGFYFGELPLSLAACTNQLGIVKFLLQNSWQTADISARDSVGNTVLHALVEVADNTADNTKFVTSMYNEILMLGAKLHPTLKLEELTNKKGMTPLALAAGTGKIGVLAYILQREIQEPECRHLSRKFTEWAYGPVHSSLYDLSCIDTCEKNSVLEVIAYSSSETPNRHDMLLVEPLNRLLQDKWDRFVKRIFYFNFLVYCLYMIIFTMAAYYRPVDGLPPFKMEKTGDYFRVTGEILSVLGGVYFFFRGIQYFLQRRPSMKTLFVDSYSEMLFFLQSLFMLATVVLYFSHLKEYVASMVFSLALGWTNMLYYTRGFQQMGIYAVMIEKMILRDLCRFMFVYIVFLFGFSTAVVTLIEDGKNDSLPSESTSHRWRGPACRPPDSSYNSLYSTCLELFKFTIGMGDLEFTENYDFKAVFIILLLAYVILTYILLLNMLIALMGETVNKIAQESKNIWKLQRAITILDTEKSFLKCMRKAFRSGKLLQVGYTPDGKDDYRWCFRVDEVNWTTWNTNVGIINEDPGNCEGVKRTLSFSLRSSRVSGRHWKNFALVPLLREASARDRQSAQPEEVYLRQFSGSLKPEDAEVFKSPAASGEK
row,SMILES,A2 VALUE
1,"O=C(/C=C1\CC2(CCC2)Oc2cc(C(F)(F)F)ccc21)Nc1cccc2c1CC(O)CC2 (centres unmarked) [Example 251, (E)-2-(7-trifluoromethyl-2,2-cyclobutylchroman-4-ylidene)-N-(7-hydroxy-5,6,7,8-tetrahydronaphthalen-1-yl)acetamide]",A (compounds of the present invention having an A2 value of less than 100 nM are represented by A)
2,"CCCCC(=O)N1CCC/C(=C\C(=O)Nc2cccc3c2CC(O)CC3)c2ccc(C(F)(F)F)cc21 (centres unmarked) [Example 190, (E)-2-(8-trifluoromethyl-1-pentanoyl-1,2,3,4-tetrahydro-5H-benzo[b]azepin-5-ylidene)-N-(7-hydroxy-5,6,7,8-tetrahydronaphthalen-1-yl)acetamide]",A (compounds of the present invention having an A2 value of less than 100 nM are represented by A)
3,"CCn1c(NC(=O)/C=C2\CCCOc3cc(C(F)(F)F)ccc32)nc2ccccc21 [Example 43, (E)-N-(1-ethyl-1H-benzo[d]imidazolo-2-yl)-2-(8-trifluoromethyl-3,4-dihydrobenzo[b]oxepin-5(2H)-ylidene)acetamide]",B (compounds having an A2 value of 100 nM or more are represented by B)
4,"O=C(/C=C1\CCCOc2cc(C(F)(F)F)ccc21)Nc1cccc2c1CC(O)C2 (centres unmarked) [Example 163, (E)-2-(8-trifluoromethyl-3,4-dihydrobenzo[b]oxepin-5(2H)-ylidene)-N-(indan-2-ol-4-yl)acetamide]",A (compounds of the present invention having an A2 value of less than 100 nM are represented by A)
5,"O=C(/C=C1\CCOc2cc(C(F)(F)F)ccc21)Nc1cccc2c1CC(O)CC2 (centres unmarked) [Example 71, (E)-2-(7-trifluoromethyl-chroman-4-ylidene)-N-(7-hydroxy-5,6,7,8-tetrahydronaphthalen-1-yl)acetamide]",A (compounds of the present invention having an A2 value of less than 100 nM are represented by A)
6,"CC1(C)C/C(=C\C(=O)Nc2cccc3c2CC(O)CC3)c2ccc(C(F)(F)F)cc2O1 (centres unmarked) [Example 243, (E)-2-(7-trifluoromethyl-2,2-dimethylchroman-4-ylidene)-N-(7-hydroxy-5,6,7,8-tetrahydronaphthalen-1-yl)acetamide]",A (compounds of the present invention having an A2 value of less than 100 nM are represented by A)
7,"O=C(/C=C1\CCN(C2CCCCC2)c2cc(C(F)(F)F)ccc21)Nc1ccc2cccnc2c1 [Example 97, (E)-2-(7-trifluoromethyl-2,3-dihydro-1-cyclohexylquinolin-4(1H)-ylidene)-N-(quinolin-7-yl)acetamide]",A (compounds of the present invention having an A2 value of less than 100 nM are represented by A)
8,"O=C(/C=C1\CCCOc2cc(C(F)(F)F)ccc21)Nc1ccc(C(F)(F)F)cc1 [Example 15, (E)-2-(8-trifluoromethyl-3,4-dihydrobenzo[b]oxepin-5(2H)-ylidene)-N-(4-trifluoromethylphenyl)acetamide]",B (compounds having an A2 value of 100 nM or more are represented by B)
9,"O=C1CCc2cccc(NC(=O)/C=C3\CCOc4cc(C(F)(F)F)ccc43)c2C1 [Example 119, (E)-N-(7-oxo-5,6,7,8-tetrahydronaphthalen-1-yl)-2-(7-trifluoromethyl-chroman-4-ylidene)acetamide]",A (compounds of the present invention having an A2 value of less than 100 nM are represented by A)
10,O=C(/C=C1\CCCOc2cc(C(F)(F)F)ccc21)Nc1ccc(Oc2ccc(C(F)(F)F)cn2)cc1 [Example 27],B (compounds having an A2 value of 100 nM or more are represented by B)
11,"O=C(/C=C1\CCCOc2cc(C(F)(F)F)ccc21)Nc1ccc2cccnc2c1 [Example 13, (E)-2-(8-trifluoromethyl-3,4-dihydrobenzo[b]oxepin-5(2H)-ylidene)-N-(quinolin-7-yl)acetamide]",A (compounds of the present invention having an A2 value of less than 100 nM are represented by A)
12,"O=C(/C=C1\CCCOc2cc(C(F)(F)F)ccc21)Nc1cccc2ccc(O)cc12 [Example 18, (E)-2-(8-trifluoromethyl-3,4-dihydrobenzo[b]oxepin-5(2H)-ylidene)-N-(7-hydroxynaphthalen-1-yl)acetamide]",A (compounds of the present invention having an A2 value of less than 100 nM are represented by A)
13,"CC1(O)CCc2cccc(NC(=O)/C=C3\CCCOc4cc(C(F)(F)F)ccc43)c2C1 (centres unmarked) [Example 220, (E)-2-(8-trifluoromethyl-3,4-dihydrobenzo[b]oxepin-5(2H)-ylidene)-N-(7-hydroxy-7-methyl-5,6,7,8-tetrahydronaphthalen-1-yl)acetamide]",A (compounds of the present invention having an A2 value of less than 100 nM are represented by A)
14,"CC1(C)C/C(=C\C(=O)Nc2cccc3c2CC(O)CN3)c2ccc(C(F)(F)F)cc2O1 (centres unmarked) [Example 246, (E)-2-(7-trifluoromethyl-2,2-dimethylchroman-4-ylidene)-N-(3-hydroxy-1,2,3,4-tetrahydroquinolin-5-yl)acetamide]",A (compounds of the present invention having an A2 value of less than 100 nM are represented by A)
15,"O=C(/C=C1\CCNc2cc(C(F)(F)F)ccc21)Nc1cccc2c1CC(O)CC2 (centres unmarked) [Example 106, (E)-2-(7-trifluoromethyl-2,3-dihydroquinolin-4(1H)-ylidene)-N-(7-hydroxy-5,6,7,8-tetrahydronaphthalen-1-yl)acetamide]",A (compounds of the present invention having an A2 value of less than 100 nM are represented by A)
16,"O=C(/C=C1\CCCOc2cc(C(F)(F)F)ccc21)NCc1ccc2c(c1)CCO2 [Example 35, (E)-2-(8-trifluoromethyl-3,4-dihydrobenzo[b]oxepin-5(2H)-ylidene)-N-((2,3-dihydrobenzofuran-5-yl)methyl)acetamide]",B (compounds having an A2 value of 100 nM or more are represented by B)
17,"O=C(/C=C1\CCN(C(=O)C2CCC(F)C2)c2cc(C(F)(F)F)ccc21)Nc1cccc2c1CC(O)CC2 (centres unmarked) [Example 88, (E)-2-(1-(3-fluorocyclopentanecarbonyl)-7-trifluoromethyl-2,3-dihydroquinolin-4(1H)-ylidene)-N-(7-hydroxy-5,6,7,8-tetrahydronaphthalen-1-yl)acetamide]",A (compounds of the present invention having an A2 value of less than 100 nM are represented by A)
18,"COCCN1CCCc2ccc(NC(=O)/C=C3\CCCOc4cc(C(F)(F)F)ccc43)cc21 [Example 130, (E)-2-(8-trifluoromethyl-3,4-dihydrobenzo[b]oxepin-5(2H)-ylidene)-N-(1-(2-methoxyethyl)-1,2,3,4-tetrahydroquinolin-7-yl)acetamide]",A (compounds of the present invention having an A2 value of less than 100 nM are represented by A)
19,"Cc1sc2cnccc2c1NC(=O)/C=C1\CCOc2cc(C(F)(F)F)ccc21 [Example 204, (E)-2-(7-trifluoromethyl-chroman-4-ylidene)-N-(2-methylthieno[2,3-c]pyridin-3-yl)acetamide]",A (compounds of the present invention having an A2 value of less than 100 nM are represented by A)
20,O=C(/C=C1\CCN(C(=O)C2CCC(C(F)(F)F)CC2)c2cc(C(F)(F)F)ccc21)Nc1cccc2c1CC(O)CC2 (centres unmarked) [Example 110],A (compounds of the present invention having an A2 value of less than 100 nM are represented by A)
21,"O=C(/C=C1\CCCOc2cc(C(F)(F)F)ccc21)Nc1cccc2c1CC(O)CO2 (centres unmarked) [Example 183, (E)-2-(8-trifluoromethyl-3,4-dihydrobenzo[b]oxepin-5(2H)-ylidene)-N-(3-hydroxy-chroman-5-yl)acetamide]",A (compounds of the present invention having an A2 value of less than 100 nM are represented by A)
22,"O=C(/C=C1\CCOc2cc(C(F)(F)F)ccc21)Nc1cccc2c1CC(O)CN2 (centres unmarked) [Example 122, (E)-N-(3-hydroxy-1,2,3,4-tetrahydroquinolin-5-yl)-2-(7-trifluoromethyl-chroman-4-ylidene)acetamide]",A (compounds of the present invention having an A2 value of less than 100 nM are represented by A)
23,"O=C(/C=C1\CCCOc2cc(C(F)(F)F)ccc21)Nc1ncc(CO)cc1Cl [Example 224, (E)-2-(8-trifluoromethyl-3,4-dihydrobenzo[b]oxepin-5(2H)-ylidene)-N-(3-chloro-5-hydroxymethyl-2-pyridyl)acetamide]",B (compounds having an A2 value of 100 nM or more are represented by B)
